The assay relates to S180 ascites. Kind of assay: Screening for anti-tumor activity against S180 ascites (S180a) in mice. The format is in vivo, female CFW Swiss mice. The note with it: for 30-Day Survivors / %ILS: medium H2O; for 30-Day Survivors: survivors/mice in set; for %ILS: injected day 1, S180a in mice, upper limit 100%. As for the experimental part: The compounds were evaluated for anti-tumor activity against S180 ascites in female CFW Swiss mice by the following procedure: CFW mice, averaging 20g, are immediately inspected and placed in newly prepared cages. On day zero the mice are inoculated with 0.2 ml. of a freshly prepared saline suspension (0.15 M NaCl) containing 1 x 10⁷ tumor cells/ml, or a total of 2 x 10⁶ cells. This inoculum is freshly prepared using "transfer" mice which have been injected with tumor cells the previous week. This inoculum is the end-product of a series of steps which involves (1) the removal of the cells from the peritoneal cavity of the sacrificed transfer mouse, (2) alternate centrifugation-washing (2-3 times with cold saline) to remove occasional blood and other undesirable components, and finally (3) dilution (1:3) of the packed cell volume with saline (the final centrifugation being carried out at 1,000 rpm for 2 min.). A cell count is made on a 2,000-fold dilution of this 1:3 suspension by means of a Coulter Counter. A final dilution to 1 x 10⁷ cells/ml. is made based on the averaged count. On day 1, solutions of the test compounds are prepared and the mice injected, with each mouse of a set of six being injected with the same test compound at the same dose level.
ILS values above 50% represent significant activity; those above 75% represent excellent activity.

The mark [1] stands for this setting: 8 mg/kg in saline, positive control run with each experiment, S180a in mice.

Molecules are shown by their SMILES. “And” between values parts separate entries of the source, which are not always exact repeats. Identical values can stand only once.

In the case of `N.N.[Cl][Pt][Cl]` [cis-[Pt(NH3)2Cl2], cis-diamminedichloroplatinum(II), reference compound], under setting [1], the “Positive Control 30-Day Survivors” value was 2/6 and 4/6 and 1/6 and 3/6 and 2/7; the “Positive Control %ILS” value was 79% and 66% and 80% and 94% and 73% and 72% and 98%. Also, the “optimum activity (dose)” value (under identical screening) was 9 to 10 mg/kg.

As for `Cc1cc[n+]([Pt-2]([NH3+])([NH3+])[Cl])cc1.[Cl-]` (stereo not drawn) [Example 5, Cis-chlorodiammine-4-methylpyridineplatinum(II)chloride], the “30-Day Survivors” value is given as 0/6 (Dose 10 mg/kg, S180a in mice); 1/6 (Dose 20 mg/kg, S180a in mice); 2/6 (Dose 40 mg/kg, S180a in mice); 1/6 (Dose 80 mg/kg, S180a in mice); 0/6 (Dose 160 mg/kg, S180a in mice); 0/6 (Dose 320 mg/kg, S180a in mice). Moreover, the “%ILS” value is reported as 5% (Dose 10 mg/kg); 27% (Dose 20 mg/kg); 83% (Dose 40 mg/kg); 66% (Dose 80 mg/kg); -77% (Dose 160 mg/kg); -91% (Dose 320 mg/kg).

Consider `[Cl-].[NH3+][Pt-2]([NH3+])([Cl])[n+]1ccc(Cl)cc1` (stereo not drawn) [Example 8, Cis-chlorodiammine-4-chloropyridineplatinum(II) chloride], for which the “30-Day Survivors” value reads like this: (Dose 10 mg/kg, S180a in mice) 0/6; (Dose 20 mg/kg, S180a in mice) 2/6; (Dose 40 mg/kg, S180a in mice) 4/6; (Dose 80 mg/kg, S180a in mice) 4/6; (Dose 160 mg/kg, S180a in mice) 0/6; (Dose 320 mg/kg, S180a in mice) 0/6. Moreover, the “%ILS” value was 22% (Dose 10 mg/kg); 68% (Dose 20 mg/kg); 77% (Dose 40 mg/kg); 36% (Dose 80 mg/kg); -77% (Dose 160 mg/kg); -94% (Dose 320 mg/kg).

As to `[Cl-].[Cl][Pt-2]1([n+]2ccccc2)[NH2+]C2CCCCC2[NH2+]1` (stereo not drawn) [Example 19, Chloro-1,2-diaminocyclohexanepyridineplatinum(II) chloride], the “30-Day Survivors” value is, setting by setting: (Dose 10 mg/kg, S180a in mice) 0/6; (Dose 20 mg/kg, S180a in mice) 0/6; (Dose 40 mg/kg, S180a in mice) 0/6; (Dose 80 mg/kg, S180a in mice) 0/6; (Dose 160 mg/kg, S180a in mice) 0/6; (Dose 320 mg/kg, S180a in mice) 0/6. Further, the “%ILS” value is 6% (Dose 10 mg/kg); 8% (Dose 20 mg/kg); 6% (Dose 40 mg/kg); 15% (Dose 80 mg/kg); 25% (Dose 160 mg/kg); -94% (Dose 320 mg/kg).

Consider `[Cl-].[NH3+][Pt-2]([NH3+])([Cl])[n+]1cccc(O)c1` (stereo not drawn) [Example 4, Cis-chlorodiammine-3-hydroxypyridineplatinum(II) Chloride], for which the “30-Day Survivors” value runs as follows: (Dose 10 mg/kg, S180a in mice) 0/6; (Dose 20 mg/kg, S180a in mice) 0/6; (Dose 40 mg/kg, S180a in mice) 0/6; (Dose 80 mg/kg, S180a in mice) 1/6; (Dose 160 mg/kg, S180a in mice) 1/6; (Dose 320 mg/kg, S180a in mice) 0/6. Besides, the “%ILS” value by setting is: (Dose 10 mg/kg) 5%; (Dose 20 mg/kg) 10%; (Dose 40 mg/kg) 54%; (Dose 80 mg/kg) 69%; (Dose 160 mg/kg) -8%; (Dose 320 mg/kg) -75%.

For `Cc1ccc(O)c[n+]1[Pt-2]([NH3+])([NH3+])[Cl].[Cl-]` (stereo not drawn) [Example 7, Cis-chlorodiammine-6-methyl-3-hydroxypyridineplatinum(II) chloride], the “30-Day Survivors” value by setting is: (Dose 20 mg/kg, S180a in mice) 0/6; (Dose 40 mg/kg, S180a in mice) 2/6; (Dose 80 mg/kg, S180a in mice) 4/6; (Dose 160 mg/kg, S180a in mice) 3/6; (Dose 320 mg/kg, S180a in mice) 0/6; (Dose 640 mg/kg, S180a in mice) 0/6. For the same molecule, the “%ILS” value reads like this: (Dose 20 mg/kg) 30%; (Dose 40 mg/kg) 70%; (Dose 80 mg/kg) 93%; (Dose 160 mg/kg) 82%; (Dose 320 mg/kg) -49%; (Dose 640 mg/kg) -75%.

On to `N.N.Nc1cc[nH]c(=O)n1.[Cl-].[Cl][Pt+]` [Example 6, Cis-chlorodiamminecytosineplatinum(II) chloride], for which the “30-Day Survivors” value is 0/6 (Dose 20 mg/kg, S180a in mice); 1/6 (Dose 40 mg/kg, S180a in mice); 4/6 (Dose 80 mg/kg, S180a in mice); 3/6 (Dose 160 mg/kg, S180a in mice); 2/6 (Dose 320 mg/kg, S180a in mice); 0/6 (Dose 640 mg/kg, S180a in mice). Besides, the “%ILS” value (Dose 20 mg/kg) turned out to be 23%; the “%ILS” value (Dose 40 mg/kg) is listed as 58%; the “%ILS” value (Dose 80 mg/kg) was found to be 92%; the “%ILS” value (Dose 160 mg/kg) is given as 68%; the “%ILS” value (Dose 320 mg/kg) is reported as -16%; the “%ILS” value (Dose 640 mg/kg) is -74%.

Turning to `N.N.Oc1ccccn1.[Cl-].[Cl][Pt+]` [Example 2, Cis-Chlorodiammine-2-hydroxypyridineplatinum(II) Chloride], the “30-Day Survivors” value (Dose 5 mg/kg, S180a in mice) is reported as 0/6; the “30-Day Survivors” value (Dose 10 mg/kg, S180a in mice) is reported as 0/6; the “30-Day Survivors” value (Dose 20 mg/kg, S180a in mice) was 0/6; the “30-Day Survivors” value (Dose 40 mg/kg, S180a in mice) was 4/6 and 2/6; the “30-Day Survivors” value (Dose 80 mg/kg, S180a in mice) was 4/6 and 2/6; the “30-Day Survivors” value (Dose 160 mg/kg, S180a in mice) is reported as 3/6. Also, the “30-Day Survivors” value is, setting by setting: (Dose 320 mg/kg, S180a in mice) 0/6; (Dose 640 mg/kg, S180a in mice) 0/6; (Dose 1280 mg/kg, S180a in mice) 0/6. Further, the “%ILS” value (Dose 5 mg/kg) is 15%; the “%ILS” value (Dose 10 mg/kg) stood at 15%; the “%ILS” value (Dose 20 mg/kg) was determined as 28%; the “%ILS” value (Dose 40 mg/kg, 40 mg/kg) was 95% and 78%; the “%ILS” value (Dose 80 mg/kg, 80 mg/kg) was 91% and 80%; the “%ILS” value (Dose 160 mg/kg) is on record as 64%. Besides, the “%ILS” value (Dose 320 mg/kg) is -74%, the “%ILS” value (Dose 640 mg/kg) is on record as -77% and the “%ILS” value (Dose 1280 mg/kg) is listed as -84%.

As to `N.N.[Cl-].[Cl][Pt+].c1ccncc1` [Example 18, Trans-Chlorodiamminepyridineplatinum(II) Chloride], the “30-Day Survivors” value was 0/6 (Dose 5 mg/kg, S180a in mice); 0/6 (Dose 10 mg/kg, S180a in mice); 0/6 (Dose 20 mg/kg, S180a in mice); 0/6 (Dose 40 mg/kg, S180a in mice); 0/6 (Dose 80 mg/kg, S180a in mice); 0/6 (Dose 160 mg/kg, S180a in mice). The “%ILS” value (Dose 5 mg/kg, 5 mg/kg) is 2%; the “%ILS” value (Dose 10 mg/kg, 10 mg/kg) is 7%; the “%ILS” value (Dose 20 mg/kg, 20 mg/kg) stood at 6%; the “%ILS” value (Dose 40 mg/kg, 40 mg/kg) stood at 15%; the “%ILS” value (Dose 80 mg/kg, 80 mg/kg) is 26%; the “%ILS” value (Dose 160 mg/kg, 160 mg/kg) is -70%.

As to `N.N.[Cl-].[Cl][Pt+].c1ccncc1` [Example 1, Cis-Chlorodiamminepyridineplatinum(II) Chloride], the “30-Day Survivors” value runs as follows: (Dose 5 mg/kg, S180a in mice) 0/6; (Dose 10 mg/kg, S180a in mice) 0/6; (Dose 20 mg/kg, S180a in mice) 1/6 and 0/6; (Dose 40 mg/kg, S180a in mice) 4/6 and 6/6; (Dose 80 mg/kg, S180a in mice) 0/6 and 4/6; (Dose 160 mg/kg, S180a in mice) 0/6. Further, the “30-Day Survivors” value (Dose 320 mg/kg, S180a in mice) is 0/7. Also, the “%ILS” value was 19% (Dose 5 mg/kg, 5 mg/kg); 73% and 70% (Dose 20 mg/kg, 20 mg/kg); 91% and 100% (Dose 40 mg/kg, 40 mg/kg); 100% (Dose 40 mg/kg, listed as Cis-[Pt(NH₃)₂(py)Cl]Cl, 40 mg/kg); -94% (Dose 320 mg/kg).

(Values after patent publication EP0199524B1, “Platinum tramine antitumor agents” (ENGELHARD CORPORATION, priority 1985, dated 1986).)
